Laboratory results taken from patent US8198279B2, “Pyrido[2,3-b]pyrazin-8-substituted compounds and their use” (Institute of Cancer Research: Royal Cancer Hospital (The), priority 2007, dated 2012).
pIC50: −log10 of the molar value. “And” between values parts separate entries of the source, which are not always exact repeats. Equal values may be shown once.

Each compound was assayed against T1, B-RAF (Homo sapiens, UniProt P15056, V600E) (assay: DELFIA Kinase Assay). Settings: 100 μM ATP, GST-MEK substrate.
T1 construct: made in house
T1 sequence (P15056 whole entry V600E): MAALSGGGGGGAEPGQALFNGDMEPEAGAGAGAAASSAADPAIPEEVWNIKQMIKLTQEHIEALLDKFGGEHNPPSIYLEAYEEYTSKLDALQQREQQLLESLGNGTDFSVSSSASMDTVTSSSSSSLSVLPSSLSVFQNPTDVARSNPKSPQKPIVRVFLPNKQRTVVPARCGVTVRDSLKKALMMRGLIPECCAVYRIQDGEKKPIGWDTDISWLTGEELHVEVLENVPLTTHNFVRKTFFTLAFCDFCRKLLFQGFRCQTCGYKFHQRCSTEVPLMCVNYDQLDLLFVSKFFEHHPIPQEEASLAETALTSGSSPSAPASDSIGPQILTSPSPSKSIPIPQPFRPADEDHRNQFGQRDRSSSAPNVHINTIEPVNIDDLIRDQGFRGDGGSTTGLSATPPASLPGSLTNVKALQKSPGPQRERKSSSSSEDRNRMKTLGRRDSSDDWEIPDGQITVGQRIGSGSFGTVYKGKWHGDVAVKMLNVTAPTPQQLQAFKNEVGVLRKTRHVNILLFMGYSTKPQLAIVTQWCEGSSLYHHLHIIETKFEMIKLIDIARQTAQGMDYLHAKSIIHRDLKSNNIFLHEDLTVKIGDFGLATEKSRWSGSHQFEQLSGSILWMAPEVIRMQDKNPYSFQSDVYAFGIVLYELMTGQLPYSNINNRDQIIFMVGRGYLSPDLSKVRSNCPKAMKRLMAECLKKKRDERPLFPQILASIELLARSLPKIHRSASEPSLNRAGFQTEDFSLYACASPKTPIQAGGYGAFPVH
Format: biochemical
Procedure: Biological Methods—DELFIA Kinase Assay
Compounds were assessed by a kinase assay performed according to the following protocol.
DKB1 (DKB with B-RAF and MEK Protein):
Combine 4950 μL of DKB and 50 μL of 2.5 mg/ml GST-MEK stock (to give […] of MEK per 40 μL). Then add 22.5 μL of B-RAF to give ˜0.2 μL of B-RAF per 40 μL.
100 mM stock, dilute to 500 μM to give 100 μM final concentration in assay.
• 1. Preblock wells with 5% milk in TBS for 1 hour. • 2. Wash wells with 3× with 200 μL TBS. • 3. Plate out 40 μL of DKB1 for all inhibitors (test compounds), DMSO control, and optionally other control compounds. • 4. Plate out 40 μL of DKB2 for BO and EV wells. • 5. Add inhibitors (test compounds) at 0.5 μL per well according to desired plate layout. • 6. Add 0.5 μL DMSO to vehicle control wells. • 7. Add 2 μL of B-RAF to BO and EV wells. • 8. Pre-incubate with inhibitors (test compounds) for 10 minutes at room temperature with shaking. • 9. Add 10 μL of 500 μM ATP stock, in DKB, to give 100 μM assay concentration. • 10. Seal plates with TopSeal and incubate at room temperature with shaking for 45 minutes. • 11. Wash plates 3× with 200 μL 0.1% Tween20/Water to terminate reaction. • 12. Add 50 μL per well of antibody mix and incubate for 1 hour at room temperature with shaking. • 13. Wash plates 3× with 200 μL 0.1% Tween20/Water. • 14. Add 100 μL DELFIA enhancement solution per well, cover in foil, and incubate at room temperature for 30 minutes with shaking. • 15. Read on Victor using Europium protocol.
Values for the blank (Empty Vector) are subtracted from all values. The DMSO controls are set as 100% activity and assay points (the response) are calculated as a percentage of the DMSO control. Data are plotted using Graphpad Prism software and a non-linear regression line is calculated using a variable slope sigmoidal dose-response equation (Y=Bottom+(Top−Bottom)/(1+10^((LogEC50−X)*HillSlope)) where X is the logarithm of concentration. Y is the response). The IC50 generated by this procedure is the concentration of the drug that produces a percentage control fluorescence value midway between the saturation, and zero-effect plateaus. Three independent assays are usually performed and the mean IC50 is reported.

| pIC50 | SMILES |
| --- | --- |
| > 6.00 and 6.00 to 7.00 | CSc1cc(Oc2ccnc3ncc(=O)[nH]c23)ccc1NC(=O)Nc1cc(C(F)(F)F)ccc1F [AA-046, 1-(2-fluoro-5-(trifluoromethyl)phenyl)-3-(2-(methylthio)-4-(2-oxo-1,2-dihydropyrido[2,3-b]pyrazin-8-yloxy)phenyl)urea] |
| > 7.00 | O=C(Nc1ccc(Oc2ccnc3ncc(=O)[nH]c23)cc1F)Nc1cc(C(F)(F)F)ccc1F [AA-047] |
| > 7.00 | O=C(Nc1ccc(Cl)c(C(F)(F)F)c1)Nc1ccc(Oc2ccnc3ncc(=O)[nH]c23)cc1F [AA-048, 1-(4-Chloro-3-(trifluoromethyl)phenyl)-3-(2-fluoro-4-(2-oxo-1,2-dihydropyrido[2,3-b]pyrazin-8-yloxy)phenyl)urea] |
| > 6.00 and 6.00 to 7.00 | Cc1nc2nccc(Oc3ccc(NC(=O)Nc4cc(C(F)(F)F)ccc4F)c(F)c3)c2[nH]c1=O [AA-049, 1-(2-fluoro-4-(3-methyl-2-oxo-1,2-dihydropyrido[3,2-b]pyrazin-8-yloxy)phenyl)-3-(2-fluoro-5-(trifluoromethyl)phenyl)urea] |
| > 7.00 | O=C(Nc1ccc(Oc2ccnc3[nH]c(=O)c(=O)[nH]c23)cc1)Nc1ccc(Cl)c(C(F)(F)F)c1 [AA-050, 1-(4-chloro-3-(trifluoromethyl)phenyl)-3-(4-(2,3-dioxo-1,2,3,4-tetrahydropyrido[2,3-b]pyrazin-8-yloxy)phenyl)urea] |
| > 7.00 | CSc1cc(Oc2ccnc3[nH]c(=O)c(=O)[nH]c23)ccc1NC(=O)Nc1ccc(Cl)c(C(F)(F)F)c1 [AA-051, 1-(4-chloro-3-(trifluoromethyl)phenyl)-3-(4-(2,3-dioxo-1,2,3,4-tetrahydropyrido[2,3-b]pyrazin-8-yloxy)-2-(methylthio)phenyl)urea] |
| > 7.00 | CSc1cc(Oc2ccnc3[nH]c(=O)c(=O)[nH]c23)ccc1NC(=O)Nc1cc(C(F)(F)F)ccc1F [AA-052, 1-(4-(2,3-dioxo-1,2,3,4-tetrahydropyrido[2,3-b]pyrazin-8-yloxy)-2-(methylthio)phenyl)-3-(2-fluoro-5-(trifluoromethyl)phenyl)urea] |
| > 6.00 and 6.00 to 7.00 | CN1CCN(c2cnc3c(Oc4ccc(NC(=O)Nc5cc(C(C)(C)C)nn5-c5ccccc5)c(F)c4)ccnc3n2)CC1 [AA-053, 1-(3-Tert-butyl-1-phenyl-1H-pyrazol-5-yl)-3-(2-fluoro-4-(3-(4-methylpiperazin-1-yl)pyrido[2,3-b]pyrazin-8-yloxy)phenyl)urea] |
| > 7.00 | O=C(Nc1ccc(Oc2ccnc3nc(N4CCOCC4)cnc23)cc1F)Nc1cc(C(F)(F)F)ccc1F [AA-054, 1-(2-Fluoro-4-(3-morpholinopyrido[2,3-b]pyrazin-8-yloxy)phenyl)-3-(2-fluoro-5-(trifluoromethyl)phenyl)urea] |
| > 6.00 and 6.00 to 7.00 | CN1CCN(c2cnc3c(Oc4ccc(NC(=O)Nc5cc(C(F)(F)F)ccc5F)c(F)c4)ccnc3n2)CC1 [AA-056, 1-(2-Fluoro-4-(3-(4-methylpiperazin-1-yl)pyrido[3,2-b]pyrazin-8-yloxy)phenyl)-3-(2-fluoro-5-(trifluoromethyl)phenyl)urea] |
| 6.00 to 7.00 | O=C(Nc1cc(C(F)(F)F)ccc1F)Nc1ccc(Oc2ccnc3[nH]c(=O)c(C(F)(F)F)nc23)c2ccccc12 [AA-082, 1-(2-fluoro-5-(trifluoromethyl)phenyl)-3-(4-(3-oxo-2-(trifluoromethyl)-3,4-dihydropyrido[2,3-b]pyrazin-8-yloxy)naphthalen-1-yl)urea] |

The next lines start with the compound.

| SMILES | pIC50 |
| --- | --- |
| O=C(Nc1cccc(Oc2ccnc3[nH]c(=O)cnc23)c1)Nc1cc(C(F)(F)F)ccc1F [AA-007, 1-(2-fluoro-5-(trifluoromethyl)phenyl)-3-(3-(3-oxo-3,4-dihydropyrido[2,3-b]pyrazin-8-yloxy)phenyl)urea] | > 7.00 |
| Cc1nc2nccc(Oc3ccc(NC(=O)Nc4cc(C(C)(C)C)nn4-c4ccccc4)c4ccccc34)c2[nH]c1=O [AA-035, 1-(3-tert-butyl-1-phenyl-1H-pyrazol-5-yl)-3-(4-(3-methyl-2-oxo-1,2-dihydropyrido[2,3-b]pyrazin-8-yloxy)naphthalen-1-yl)urea] | 6.00 to 7.00 |
| O=C(Nc1cc(C(F)(F)F)ccc1F)Nc1ccc(Oc2ccnc3ncc(=O)[nH]c23)c2ccccc12 [AA-038, 1-(2-fluoro-5-(trifluoromethyl)phenyl)-3-(4-(2-oxo-1,2-dihydropyrido[2,3-b]pyrazin-8-yloxy)naphthalen-1-yl)urea] | > 6.00 and 6.00 to 7.00 |
| Cc1nc2nccc(Oc3ccc(NC(=O)Nc4cc(C(F)(F)F)ccc4F)c4ccccc34)c2[nH]c1=O [AA-039, 1-(2-fluoro-5-(trifluoromethyl)phenyl)-3-(4-(3-methyl-2-oxo-1,2-dihydropyrido[2,3-b]pyrazin-8-yloxy)naphthalen-1-yl)urea] | > 6.00 and 6.00 to 7.00 |
| Cc1ccc(-n2nc(C(C)(C)C)cc2NC(=O)Nc2ccc(Oc3ccnc4ncc(=O)[nH]c34)cc2)cc1 [AA-040, 1-(3-tert-butyl-1-p-tolyl-1H-pyrazol-5-yl)-3-(4-(2-oxo-1,2-dihydropyrido[2,3-b]pyrazin-8-yloxy)phenyl)urea] | 6.00 to 7.00 |
| Cc1nc2nccc(Oc3ccc(NC(=O)Nc4cc(C(C)(C)C)nn4-c4ccccc4)c(F)c3)c2[nH]c1=O [AA-041, 1-(3-Tert-butyl-1-phenyl-1H-pyrazol-5-yl)-3-(2-fluoro-4-(3-methyl-2-oxo-1,2-dihydropyrido[2,3-b]pyrazin-8-yloxy)phenyl)urea] | 6.00 to 7.00 |
| O=C(Nc1ccc(Oc2ccnc3ncc(=O)[nH]c23)cc1)Nc1ccc(Cl)c(C(F)(F)F)c1 [AA-042, 1-(4-chloro-3-(trifluoromethyl)phenyl)-3-(4-(2-oxo-1,2-dihydropyrido[2,3-b]pyrazin-8-yloxy)phenyl)urea] | > 6.00 and 6.00 to 7.00 |
| O=C(Nc1ccc(Oc2ccnc3ncc(=O)[nH]c23)cc1)Nc1cc(C(F)(F)F)ccc1F [AA-043, 1-(2-fluoro-5-(trifluoromethyl)phenyl)-3-(4-(2-oxo-1,2-dihydropyrido[2,3-b]pyrazin-8-yloxy)phenyl)urea] | 6.00 to 7.00 |
| Nc1nc2c(Oc3ccc(NC(=O)Nc4cc(C(F)(F)F)ccc4F)c(F)c3)ccnc2[nH]c1=O [AA-044, 1-(4-(2-amino-3-oxo-3,4-dihydropyrido[2,3-b]pyrazin-8-yloxy)-2-fluorophenyl)-3-(2-fluoro-5-(trifluoromethyl)phenyl)urea] | > 7.00 |
| CSc1cc(Oc2ccnc3ncc(=O)[nH]c23)ccc1NC(=O)Nc1ccc(Cl)c(C(F)(F)F)c1 [AA-045, 1-(4-chloro-3-(trifluoromethyl)phenyl)-3-(2-(methylthio)-4-(2-oxo-1,2-dihydropyrido[2,3-b]pyrazin-8-yloxy)phenyl)urea] | > 7.00 |

The compounds below were run on WM266.4 melanoma cells (assay: SRB Cell Proliferation Assay (SRB GI50)). Settings: Homo sapiens, WM 266-4, 144 h, 6 days growth.
Format: cell-based
Procedure: Biological Methods —SRB Cell Proliferation Assay (SRB GI50)
Cultures of WM266.4 melanoma cells are routinely cultured in DMEM/10% foetal bovine serum, at 37° C., in 5% CO2 water saturated atmosphere. Cultures are maintained in exponential growth phase by sub-culturing before having become confluent (3-5 day intervals). Single cell suspensions are prepared by harvesting an 80 cm^2 tissue culture flask with 5 mL commercial trypsin EDTA. After 5 minutes, the detached cells are mixed with 5 mL fully complemented culture medium and centrifugally pelleted (1000 rpm for 7 minutes). After aspirating the supernatant, the cell pellet is re-suspended in 10 mL fresh medium and the cells fully disaggregated by drawing the whole volume up/down 5 times through a 19-gauge needle. The concentration of the cells is determined using a haemocytometer (1/10 dilution). A suitable volume to give at least a 2-fold excess for the number of tests being conducted, typically 100-200 mL, is prepared by diluting the cell suspension to 10,000/mL, and 100 μL/well dispensed into 96 well plates using a programmable 8-channel peristaltic pump, giving 1000 cells/well, leaving column 12 blank. The plates are returned to the incubator for 24 hours to allow the cells to re-attach.
The compounds being tested are prepared at 20 mM in dimethylsulphoxide. Aliquots (200 μL) are diluted into 20 mL culture medium giving 200 μM, and 10 serial dilutions of 3× performed by transferring 5 mL to 10 mL. Aliquots (100 μL) of each dilution are added to the wells, using an 8-channel pipettor, thus performing a final further 2× dilution, and giving doses ranging from 100 μM to 0.005 μM. Column 11 receives plain culture medium only. Each compound is tested in quadruplicate, each replicate being the average of four wells, and two plates per compound.
After a further 6 days growth, the plates are emptied, and the cells are fixed in 10% trichloroacteic acid for 10 minutes on ice. After thorough rinsing in running tap water, the plates are dried, and stained by adding 50 μL of a solution of 0.1% sulphorhodamine-B in 1% acetic acid, for 10 minutes at room temperature. The stain is poured out and the plates thoroughly rinsed under a stream of 1% acetic acid, thus removing unbound stain, and dried. The bound stain is taken into solution by addition of 150 μL Tris buffer pH 8, followed by 10 minutes on a plate-shaker (approximately 500 rpm). The absorbance at 540 nm in each well (being proportional to the number of cells present) is determined using a plate reader.
After averaging the results in rows A-D and E-H, the blank value (row 12) is subtracted, and results expressed as percentage of the untreated value (row 11). […] The GI50 generated by this procedure is the concentration of the drug that produces a percentage control A540 midway between the saturation, and zero-effect plateaus.

| GI50 [nM] | SMILES |
| --- | --- |
| 1000 to 10000 | O=C(Nc1cccc(Oc2ccnc3[nH]c(=O)cnc23)c1)Nc1cc(C(F)(F)F)ccc1F [AA-007, 1-(2-fluoro-5-(trifluoromethyl)phenyl)-3-(3-(3-oxo-3,4-dihydropyrido[2,3-b]pyrazin-8-yloxy)phenyl)urea] |
